Several values for one entry are separate records, joined by “and”; a condition that tells them apart may be missing. Equal values may be shown once. Inconclusive results and toxic doses are left out.
Test system: CD2F1 mice, L1210 leukemia ip, survival T/C
Experiment: NCI In Vivo Anticancer Drug Screen. Data for tumor model L1210 Leukemia (intraperitoneal) in CD2F1 (CDF1) mice
Conditions: higher = longer survival
Method in brief: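 In this screen, transplantable tumors were grown in mice given either the compound or its vehicle. Results were expressed as the treated measurement relative to the control measurement.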

Compound: CO[C@@]12[C@H](COC(N)=O)C3=C(C(=O)C(C)=C(N)C3=O)N1C[C@@H]1N[C@@H]12
- T/C (endpoint: mean survival time, dose: 0.25 mg/kg/injection, schedule: Q01DX009 (ip), vehicle: saline): 118 % of control and 121 % of control
- T/C (endpoint: mean survival time, dose: 0.38 mg/kg/injection, schedule: Q01DX009 (ip), vehicle: water): 103 % of control
- T/C (endpoint: mean survival time, dose: 0.4 mg/kg/injection, schedule: Q04DX003 (ip), vehicle: water): 111 % of control
- T/C (endpoint: mean survival time, dose: 0.45 mg/kg/injection, schedule: Q01DX007 (ip), vehicle: acetone): 117 % of control
- T/C (endpoint: mean survival time, dose: 0.5 mg/kg/injection, schedule: Q01DX009 (ip), vehicle: water): 113 % of control
- T/C (endpoint: mean survival time, dose: 0.6 mg/kg/injection, schedule: Q01DX001 (ip), vehicle: carboxymethylcellulose (CMC)): 111 % of control
- T/C (endpoint: mean survival time, dose: 0.65 mg/kg/injection, schedule: Q04DX003 (ip), vehicle: water): 111 % of control
- T/C (endpoint: mean survival time, dose: 0.68 mg/kg/injection, schedule: Q01DX007 (ip), vehicle: acetone): 121 % of control
- T/C (endpoint: mean survival time, dose: 0.68 mg/kg/injection, schedule: Q03DX004 (ip), vehicle: acetone): 119 % of control
- T/C (endpoint: mean survival time, dose: 0.75 mg/kg/injection, schedule: Q01DX005 (ip), vehicle: clinical formulation): 120 % of control
- T/C (endpoint: mean survival time, dose: 0.75 mg/kg/injection, schedule: Q01DX009 (ip), vehicle: water): 104 % of control
- T/C (endpoint: mean survival time, dose: 0.87 mg/kg/injection, schedule: Q01DX001 (ip), vehicle: acetone): 110 % of control
- T/C (endpoint: mean survival time, dose: 1.0 mg/kg/injection, schedule: Q01DX009 (ip), vehicle: water): 115 % of control
- T/C (endpoint: mean survival time, dose: 1.0 mg/kg/injection, schedule: Q04DX003 (ip), vehicle: saline): 116 % of control
- T/C (endpoint: mean survival time, dose: 1.1 mg/kg/injection, schedule: Q04DX003 (ip), vehicle: water): 119 % of control
- T/C (endpoint: mean survival time, dose: 1.2 mg/kg/injection, schedule: Q01DX001 (ip), vehicle: carboxymethylcellulose (CMC)): 116 % of control
- T/C (endpoint: mean survival time, dose: 1.5 mg/kg/injection, schedule: Q01DX001 (ip), vehicle: saline): 105 % of control
- T/C (endpoint: mean survival time, dose: 1.5 mg/kg/injection, schedule: Q01DX005 (ip), vehicle: clinical formulation): 151 % of control
- T/C (endpoint: mean survival time, dose: 1.55 mg/kg/injection, schedule: Q02DX005 (ip), vehicle: saline): 119 % of control
- T/C (endpoint: mean survival time, dose: 1.55 mg/kg/injection, schedule: Q03DX004 (ip), vehicle: saline): 116 % of control
- T/C (endpoint: mean survival time, dose: 1.55 mg/kg/injection, schedule: Q04DX003 (ip), vehicle: saline): 114 % of control
- T/C (endpoint: mean survival time, dose: 1.55 mg/kg/injection, schedule: Q08DX002 (ip), vehicle: saline): 104 % of control
- T/C (endpoint: mean survival time, dose: 1.75 mg/kg/injection, schedule: Q01DX001 (ip), vehicle: carboxymethylcellulose (CMC)): 110 % of control
- T/C (endpoint: mean survival time, dose: 1.75 mg/kg/injection, schedule: Q01DX001 (ip), vehicle: saline): 120 % of control
- T/C (endpoint: mean survival time, dose: 2.0 mg/kg/injection, schedule: Q01DX009 (ip), vehicle: water): 107 % of control
- T/C (endpoint: mean survival time, dose: 2.0 mg/kg/injection, schedule: Q04DX003 (ip), vehicle: saline): 119 % of control
- T/C (endpoint: mean survival time, dose: 2.3 mg/kg/injection, schedule: Q01DX001 (ip), vehicle: acetone): 150 % of control
- T/C (endpoint: mean survival time, dose: 2.3 mg/kg/injection, schedule: Q01DX001 (ip), vehicle: carboxymethylcellulose (CMC)): 118 % of control and 111 % of control
- T/C (endpoint: mean survival time, dose: 2.33 mg/kg/injection, schedule: Q02DX005 (ip), vehicle: saline): 119 % of control
- T/C (endpoint: mean survival time, dose: 2.33 mg/kg/injection, schedule: Q03DX004 (ip), vehicle: saline): 123 % of control
- T/C (endpoint: mean survival time, dose: 2.33 mg/kg/injection, schedule: Q04DX003 (ip), vehicle: saline): 121 % of control
- T/C (endpoint: mean survival time, dose: 2.33 mg/kg/injection, schedule: Q08DX002 (ip), vehicle: saline): 111 % of control
- T/C (endpoint: mean survival time, dose: 2.9 mg/kg/injection, schedule: Q01DX001 (ip), vehicle: saline): 124 % of control
- T/C (endpoint: mean survival time, dose: 3.0 mg/kg/injection, schedule: Q01DX001 (ip), vehicle: saline): 124 % of control
- T/C (endpoint: mean survival time, dose: 3.0 mg/kg/injection, schedule: Q01DX005 (ip), vehicle: clinical formulation): 113 % of control and 98 % of control
- T/C (endpoint: mean survival time, dose: 3.0 mg/kg/injection, schedule: Q01DX009 (ip), vehicle: water): 101 % of control and 108 % of control
- T/C (endpoint: mean survival time, dose: 3.0 mg/kg/injection, schedule: Q04DX003 (ip), vehicle: saline): 170 % of control
- T/C (endpoint: mean survival time, dose: 3.5 mg/kg/injection, schedule: Q01DX001 (ip), vehicle: acetone): 156 % of control
- T/C (endpoint: mean survival time, dose: 3.5 mg/kg/injection, schedule: Q01DX001 (ip), vehicle: carboxymethylcellulose (CMC)): 155 % of control
- T/C (endpoint: mean survival time, dose: 3.5 mg/kg/injection, schedule: Q04DX003 (ip), vehicle: saline): 123 % of control
- T/C (endpoint: mean survival time, dose: 3.5 mg/kg/injection, schedule: Q08DX002 (ip), vehicle: saline): 121 % of control
- T/C (endpoint: mean survival time, dose: 4.5 mg/kg/injection, schedule: Q01DX001 (ip), vehicle: saline): 108 % of control
- T/C (endpoint: mean survival time, dose: 4.7 mg/kg/injection, schedule: Q01DX001 (ip), vehicle: saline): 122 % of control
- T/C (endpoint: mean survival time, dose: 5.0 mg/kg/injection, schedule: Q04DX003 (ip), vehicle: water): 150 % of control
- T/C (endpoint: mean survival time, dose: 5.25 mg/kg/injection, schedule: Q01DX001 (ip), vehicle: carboxymethylcellulose (CMC)): 176 % of control
- T/C (endpoint: mean survival time, dose: 5.25 mg/kg/injection, schedule: Q01DX004 (ip), vehicle: saline): 152 % of control
- T/C (endpoint: mean survival time, dose: 5.25 mg/kg/injection, schedule: Q01DX005 (ip), vehicle: saline): 165 % of control
- T/C (endpoint: mean survival time, dose: 7.0 mg/kg/injection, schedule: Q01DX003 (ip), vehicle: saline): 150 % of control
- T/C (endpoint: mean survival time, dose: 7.0 mg/kg/injection, schedule: Q04DX003 (ip), vehicle: saline): 152 % of control
- T/C (endpoint: mean survival time, dose: 8.3 mg/kg/injection, schedule: Q04DX003 (ip), vehicle: water): 119 % of control
- T/C (endpoint: mean survival time, dose: 10.5 mg/kg/injection, schedule: Q01DX001 (ip), vehicle: carboxymethylcellulose (CMC)): 114 % of control
- T/C (endpoint: mean survival time, dose: 12.0 mg/kg/injection, schedule: Q01DX001 (ip), vehicle: saline): 112 % of control
- T/C (endpoint: median survival time, dose: 0.1 mg/kg/injection, schedule: Q01DX009 (ip), vehicle: saline): 192 % of control
- T/C (endpoint: median survival time, dose: 0.1 mg/kg/injection, schedule: Q04DX003 (ip), vehicle: saline): 108 % of control
- T/C (endpoint: median survival time, dose: 0.12 mg/kg/injection, schedule: Q01DX009 (ip), vehicle: Klucel (hydroxypropylcellulose) (HPC)): 102 % of control
- T/C (endpoint: median survival time, dose: 0.2 mg/kg/injection, schedule: Q01DX009 (ip), vehicle: saline): 113 % of control
- T/C (endpoint: median survival time, dose: 0.2 mg/kg/injection, schedule: Q04DX003 (ip), vehicle: saline): 107 % of control
- T/C (endpoint: median survival time, dose: 0.25 mg/kg/injection, schedule: Q01DX009 (ip), vehicle: Klucel (hydroxypropylcellulose) (HPC)): 102 % of control
- T/C (endpoint: median survival time, dose: 0.25 mg/kg/injection, schedule: Q01DX009 (ip), vehicle: saline): 109 % of control
- T/C (endpoint: median survival time, dose: 0.25 mg/kg/injection, schedule: Q01DX009 (ip), vehicle: water): 115 % of control
- T/C (endpoint: median survival time, dose: 0.4 mg/kg/injection, schedule: Q01DX001 (ip), vehicle: saline): 113 % of control
- T/C (endpoint: median survival time, dose: 0.4 mg/kg/injection, schedule: Q01DX009 (ip), vehicle: saline): 124 % of control
- T/C (endpoint: median survival time, dose: 0.4 mg/kg/injection, schedule: Q04DX003 (ip), vehicle: saline): 109 % of control
- T/C (endpoint: median survival time, dose: 0.5 mg/kg/injection, schedule: Q01DX009 (ip), vehicle: Klucel (hydroxypropylcellulose) (HPC)): 104 % of control
- T/C (endpoint: median survival time, dose: 0.5 mg/kg/injection, schedule: Q01DX009 (ip), vehicle: saline): 118 % of control
- T/C (endpoint: median survival time, dose: 0.75 mg/kg/injection, schedule: Q01DX001 (ip), vehicle: saline): 115 % of control
- T/C (endpoint: median survival time, dose: 0.8 mg/kg/injection, schedule: Q01DX001 (ip), vehicle: saline): 112 % of control
- T/C (endpoint: median survival time, dose: 0.8 mg/kg/injection, schedule: Q04DX003 (ip), vehicle: saline): 124 % of control
- T/C (endpoint: median survival time, dose: 1.0 mg/kg/injection, schedule: Q01DX009 (ip), vehicle: Klucel (hydroxypropylcellulose) (HPC)): 116 % of control
- T/C (endpoint: median survival time, dose: 1.6 mg/kg/injection, schedule: Q01DX009 (ip), vehicle: saline): 165 % of control
- T/C (endpoint: median survival time, dose: 1.8 mg/kg/injection, schedule: Q01DX001 (ip), vehicle: water): 116 % of control and 102 % of control and 105 % of control
- T/C (endpoint: median survival time, dose: 2.4 mg/kg/injection, schedule: Q03DX003 (ip), vehicle: saline): 118 % of control and 203 % of control
- T/C (endpoint: median survival time, dose: 3.2 mg/kg/injection, schedule: Q01DX009 (ip), vehicle: saline): 96 % of control
- T/C (endpoint: median survival time, dose: 3.2 mg/kg/injection, schedule: Q04DX003 (ip), vehicle: saline): 168 % of control
- T/C (endpoint: median survival time, dose: 3.6 mg/kg/injection, schedule: Q01DX001 (ip), vehicle: saline): 155 % of control and 160 % of control
- T/C (endpoint: median survival time, dose: 4.0 mg/kg/injection, schedule: Q01DX009 (ip), vehicle: saline): 97 % of control
- T/C (endpoint: median survival time, dose: 4.8 mg/kg/injection, schedule: Q01DX001 (ip), vehicle: saline): 166 % of control
- T/C (endpoint: median survival time, dose: 4.8 mg/kg/injection, schedule: Q03DX003 (ip), vehicle: saline): 190 % of control
- T/C (endpoint: median survival time, dose: 5.0 mg/kg/injection, schedule: Q01DX001 (ip), vehicle: water): 113 % of control and 115 % of control
- T/C (endpoint: median survival time, dose: 5.4 mg/kg/injection, schedule: Q01DX001 (ip), vehicle: saline): 166 % of control
- T/C (endpoint: median survival time, dose: 6.0 mg/kg/injection, schedule: Q01DX009 (ip), vehicle: clinical formulation): 98 % of control
- T/C (endpoint: median survival time, dose: 6.4 mg/kg/injection, schedule: Q01DX001 (ip), vehicle: saline): 156 % of control
- T/C (endpoint: median survival time, dose: 8.0 mg/kg/injection, schedule: Q01DX001 (ip), vehicle: saline): 156 % of control and 172 % of control
- T/C (endpoint: median survival time, dose: 8.3 mg/kg/injection, schedule: Q01DX001 (ip), vehicle: water): 123 % of control
